# Assay results: patent US8217000B2, “Method for elevating prolactin in mammals” (Cara Therapeutics, Inc., priority 2006, dated 2012)
# Structures can show the parent of a compound that is named as a salt. Non-standard residues stand in square brackets, D forms with d. Residues, ends and D or L forms follow the SMILES beside them. *: point of attachment. NH(4-picolyl) = c1cc(CN*)ccn1; dNle = CCCC[C@@H](N)C(=O)O
# Test: Plasma pharmacokinetics of CR665 after single IV infusion in human subjects
# Details: for half-life / clearance / Vd / AUC(0-t) / AUC(0-inf) / Cmax / MRT / Tmax: human, plasma; for clearance: CL; for AUC(0-t): AUC0-t; for AUC(0-inf): AUC0-∞; for MRT: MRTint; for Tmax: median
# Procedure: This clinical study was conducted as a double blind, placebo controlled, ascending single intravenous (IV) dose, sequential group study. This study was double blind and placebo controlled in order to avoid bias in the collection and evaluation of data during its conduct. […] In each group, subjects received CR665 or placebo. Doses were administered as a single constant rate IV infusion over 1 hour (part A) or 5 minutes (part B) on the morning of Day 1. Doses were administered in an escalating manner following satisfactory review of the safety data and pharmacokinetic data from the lower dose levels. There was a minimum of 6 days between dose escalations to allow sufficient time for an adequate safety review.
# Plasma and urine samples for the analysis of CR665 and N oxide metabolite were prepared by solid phase extraction. The centrifuged eluates were quantified by liquid chromatography with tandem mass spectrometric detection (LC MS/MS). The lower limit of quantification was 1 ng/mL.
# For pharmacokinetic assessments, blood samples (1×3 mL) were taken from the contralateral forearm vein(s) at the following times: Pre-dose, 15 minutes, 30 minutes, 45 minutes, 1 hour (immediately prior to the end of infusion), 1 hour 5 minutes, 1 hour 10 minutes, 1 hour 15 minutes, 1.5, 2, 2.5, 3, 4, 6, 8, 12, 16, 24, 36 and 48 hours after the start of the infusion). An indwelling cannula (Venflon®; BOC Ohmeda AB, Sweden) was used for all blood collection pre-dose and up to at least 12 hours after the start of the infusion. Otherwise, samples were collected using venipuncture. Blood samples were collected into pre-chilled 3 mL K3EDTA Vacutainer™ tubes (Becton Dickinson UK, Ltd., Oxford) and, after mixing, were placed in a cool box containing crushed ice/water. The samples were centrifuged, within 30 minutes of collection, at 1500 g for 10 minutes at approximately 4° C. For each sample, the separated plasma was transferred into two 5 mL suitably labeled polypropylene tubes, and stored immediately at approximately −20° C. Plasma samples were analyzed for CR665 using liquid chromatography with tandem mass spectrometric detection.
# The pharmacokinetic analysis was conducted using WinNonlin Enterprise Version 4.0.1.
# Pharmacokinetic parameters were determined from the plasma and urine, concentrations of CR665 and the N-oxide metabolite using non compartmental procedures.
# Dose and body weight normalized values (norm) were determined for AUC0-t, AUC0-∞, Cinf and Cmax. Body weight normalized values [norm] were determined for Vz, Vss, CL and CLR.
# The pharmacokinetic analysis was conducted using model independent methods as implemented in WinNonlin software, based on plasma concentrations of CR665 from those subjects who have received CR665 and have evaluable plasma concentration-time profiles.
# The following plasma pharmacokinetic parameters were determined for CR665: • Cmax Maximum plasma concentration • tmax Time of maximum plasma concentration • t1/2z Terminal half-life=ln(2)/λz • AUC0-1 Area under the plasma concentration-time curve from time zero to time t (time of last quantifiable plasma concentration) • AUCinf Area under the plasma concentration-time curve from time zero to infinity calculated as [AUC0-t+(Clast/λz)] where Clast is the estimated concentration at the last quantifiable concentration curve. • λz Terminal-phase rate constant, also known as Kel • CL Total body clearance=Dose/AUCinf • Vz Volume of distribution based on terminal phase calculated as Vz/F=Dose/λz*AUCinf
# Individual elapsed sampling times were used in the pharmacokinetic analysis. Cmax and tmax were obtained directly from the experimental observations. For the purpose of calculating AUC0-t, when two consecutive plasma concentrations below the lower limit of quantification (LLOQ) were encountered after tmax, all subsequent values were excluded from the analysis.
# [1] = female, iv, 0.06 mg/kg, females, 5-minute IV infusion, geometric mean
# [2] = female, iv, 0.24 mg/kg, females, 1-hour IV infusion, geometric mean
# [3] = females, 0.24 mg/kg dose level as printed, Part B text
# [4] = male, iv, 0.015 mg/kg, males, 1 hour IV infusion, geometric mean
# [5] = male, iv, 0.03 mg/kg, males, 5-minute IV infusion, geometric mean
# [6] = male, iv, 0.03 mg/kg, males, 1 hour IV infusion, geometric mean
compound,measurement,setting,value
"CCCC[C@@H](NC(=O)[C@@H](Cc1ccccc1)NC(=O)[C@H](N)Cc1ccccc1)C(=O)N[C@H](CCCNC(=N)N)C(=O)NCc1ccncc1 [CR665, D-phenylalanyl-D-phenylalanyl-D-norleucyl-N-(4-pyridinylmethyl)-D-argininamide, acetate salt] (H-[dF][dF][dNle][dR]-{NH(4-picolyl)})",half-life,"both, intravenous, 0.24 mg/kg, Mean terminal elimination half-life, male and female subjects, 1-hour infusion",72 to 84 min
same,clearance,"female, intravenous, 0.06 mg/kg, geometric least squares mean, females, 5-minute infusion",544 mL/min
same,half-life,"female, intravenous, 0.06 mg/kg, Mean terminal elimination half life, females, 5-minute infusion",~48 min
same,Vd,"female, intravenous, 0.06 mg/kg, Vss, geometric least squares mean, females, 5-minute infusion",14.1 L
same,Vd,"female, intravenous, 0.06 mg/kg, Vz, geometric least squares mean, females, 5-minute infusion",45.7 L
same,half-life,"female, intravenous, 0.06 mg/kg, t1/2, geometric least squares mean, females, 5-minute infusion",56.8 min
same,clearance,"female, intravenous, 0.24 mg/kg, geometric least squares mean, females, 1-hour infusion",573 mL/min
same,half-life,"female, intravenous, 0.24 mg/kg, Mean terminal elimination half-life, females, 1-hour infusion",72 min
same,Vd,"female, intravenous, 0.24 mg/kg, Vss, geometric least squares mean, females, 1-hour infusion",17 L
same,Vd,"female, intravenous, 0.24 mg/kg, Vz, geometric least squares mean, females, 1-hour infusion",50.2 L
same,half-life,"female, intravenous, 0.24 mg/kg, t1/2, geometric least squares mean, females, 1-hour infusion",63 min
same,AUC(0-t),[1],120 ng·h/mL
same,AUC(0-inf),[1],122 ng·h/mL
same,clearance,[1],544 mL/min
same,Cmax,[1],520 ng/mL
same,MRT,[1],25.1 min
same,Vd,"female, iv, 0.06 mg/kg, Vss, females, 0.06 mg/kg, 5-minute IV infusion, geometric mean",13.7 L
same,Vd,"female, iv, 0.06 mg/kg, Vz, females, 5-minute IV infusion, geometric mean",39.2 L
same,half-life,"female, iv, 0.06 mg/kg, t1/2, females, 5-minute IV infusion, geometric mean",50 min
same,Tmax,"female, iv, 0.06 mg/kg, females, 5-minute IV infusion",5 min
same,AUC(0-t),[2],440 ng·h/mL
same,AUC(0-inf),[2],442 ng·h/mL
same,clearance,[2],557 mL/min
same,Cmax,[2],384 ng/mL
same,MRT,[2],30.9 min
same,Vd,"female, iv, 0.24 mg/kg, Vss, females, 0.24 mg/kg, 1-hour IV infusion, geometric mean",17.2 L
same,Vd,"female, iv, 0.24 mg/kg, Vz, females, 1-hour IV infusion, geometric mean",55.7 L
same,half-life,"female, iv, 0.24 mg/kg, t1/2, females, 1-hour IV infusion, geometric mean",69.6 min
same,Tmax,"female, iv, 0.24 mg/kg, females, 1-hour IV infusion",45 min
same,"AUC0-t (norm), ratio of geometric least squares means 5-minute:1-hour",females,1.04
same,"AUC0-∞ (norm), ratio of geometric least squares means 5-minute:1-hour",females,1.05
same,"CL, ratio of geometric least squares means 5-minute:1-hour",females,0.950
same,"Cmax (norm), ratio of geometric least squares means 5-minute:1-hour",females,5.27
same,"Cmax, fold higher for the 5-minute compared to the 1-hour infusion",females,5.3 fold
same,"MRTint, ratio of geometric least squares means 5-minute:1-hour",females,0.864
same,"Vss, ratio of geometric least squares means 5-minute:1-hour",females,0.832
same,"Vz, ratio of geometric least squares means 5-minute:1-hour",females,0.911
same,"t1/2, ratio of geometric least squares means 5-minute:1-hour",females,0.901
same,Between-subject variability (CV %) for AUC0-∞,[3],8.8%
same,Between-subject variability (CV %) for Cmax,[3],18.8%
same,"MRTint, geometric least squares mean","females, 1-hour infusion",29.9 min
same,"MRTint, geometric least squares mean","females, 5-minute infusion",25.8 min
same,half-life,"intravenous, Apparent elimination half life, individual subjects, males, 0.12 to 0.48 mg/kg, 1 hour infusion",72 to 180 min
same,Vd,"male, intravenous, Apparent volume of distribution at steady state (VSS), males, 0.12 to 0.48 mg/kg dose range",19 to 23 L
same,clearance,"male, intravenous, geometric least squares mean, males, 1-hour infusion, Parts A & B",557 mL/min
same,clearance,"male, intravenous, geometric least squares mean, males, 5-minute infusion, Parts A & B",538 mL/min
same,half-life,"male, intravenous, Mean apparent elimination half life, males, 0.015 to 0.06 mg/kg, 1 hour infusion",~42 min
same,half-life,"male, intravenous, Mean apparent elimination half life, males, 0.03 to 0.09 mg/kg, 5-minute infusion",60 to 78 min
same,half-life,"male, intravenous, Mean apparent elimination half life, males, 0.12 to 0.48 mg/kg, 1 hour infusion",84 to 114 min
same,Vd,"male, intravenous, Vss, geometric least squares mean, males, 1-hour infusion, Parts A & B",20.1 L
same,Vd,"male, intravenous, Vss, geometric least squares mean, males, 5-minute infusion, Parts A & B",18.1 L
same,Vd,"male, intravenous, Vz, geometric least squares mean, males, 1-hour infusion, Parts A & B",59.1 L
same,Vd,"male, intravenous, Vz, geometric least squares mean, males, 5-minute infusion, Parts A & B",61 L
same,half-life,"male, intravenous, t1/2, geometric least squares mean, males, 1-hour infusion, Parts A & B",75 min
same,half-life,"male, intravenous, t1/2, geometric least squares mean, males, 5-minute infusion, Parts A & B",76.8 min
same,AUC(0-t),[4],30 ng·h/mL
same,AUC(0-inf),[4],31.4 ng·h/mL
same,clearance,[4],560 mL/min
same,Cmax,[4],27.8 ng/mL
same,MRT,[4],30.7 min
same,Vd,"male, iv, 0.015 mg/kg, Vss, males, 0.015 mg/kg, 1 hour IV infusion, geometric mean",17.2 L
same,Vd,"male, iv, 0.015 mg/kg, Vz, males, 1 hour IV infusion, geometric mean",33.5 L
same,half-life,"male, iv, 0.015 mg/kg, t1/2, males, 1 hour IV infusion, geometric mean",41.5 min
same,Tmax,"male, iv, 0.015 mg/kg, males, 1 hour IV infusion",60 min
same,AUC(0-t),[5],65.9 ng·h/mL
same,AUC(0-t),[6],70 ng·h/mL
same,AUC(0-inf),[5],68.4 ng·h/mL
same,AUC(0-inf),[6],72.5 ng·h/mL
same,clearance,[5],473 mL/min
same,clearance,[6],538 mL/min
same,Cmax,[5],233 ng/mL
same,Cmax,[6],65.3 ng/mL
same,MRT,[5],36.9 min
same,MRT,[6],30.6 min
same,Vd,"male, iv, 0.03 mg/kg, Vss, males, 0.03 mg/kg, 5-minute IV infusion, geometric mean",17.4 L
same,Vd,"male, iv, 0.03 mg/kg, Vss, males, 0.03 mg/kg, 1 hour IV infusion, geometric mean",16.5 L
same,Vd,"male, iv, 0.03 mg/kg, Vz, males, 5-minute IV infusion, geometric mean",53.6 L
same,Vd,"male, iv, 0.03 mg/kg, Vz, males, 1 hour IV infusion, geometric mean",34.1 L
same,half-life,"male, iv, 0.03 mg/kg, t1/2, males, 5-minute IV infusion, geometric mean",78.6 min
same,half-life,"male, iv, 0.03 mg/kg, t1/2, males, 1 hour IV infusion, geometric mean",43.9 min
same,Tmax,"male, iv, 0.03 mg/kg, males, 5-minute IV infusion",5 min
same,Tmax,"male, iv, 0.03 mg/kg, males, 1 hour IV infusion",60 min
same,AUC(0-t),"male, iv, 0.06 mg/kg, males, 5-minute IV infusion, geometric mean",139 ng·h/mL
same,AUC(0-t),"male, iv, 0.06 mg/kg, males, 1 hour IV infusion, geometric mean",129 ng·h/mL
